Measured values: ChEMBL document CHEMBL4418912, “Methods of identifying antagonists of the hTAS2R46 bitter taste receptor” (2014)
Calls of active or inactive are those of the source. No cut-off for these calls is given here.

Experiments:
Format in all cases: functional, cell-based
[1] = molecular target: T1, Taste receptor type 2 member 14 (Homo sapiens) (UniProt Q9NYV8); test: Antagonist activity at recombinant human N-terminal rat ST3 receptor-fused TAS2R14 expressed in HEK293T cells co-expressing Galpha16gust44 assessed as inhibition of aristolochic acid-induced increase in intracellular calcium level at 100 uM by FLIPR assay
T1 sequence (whole entry): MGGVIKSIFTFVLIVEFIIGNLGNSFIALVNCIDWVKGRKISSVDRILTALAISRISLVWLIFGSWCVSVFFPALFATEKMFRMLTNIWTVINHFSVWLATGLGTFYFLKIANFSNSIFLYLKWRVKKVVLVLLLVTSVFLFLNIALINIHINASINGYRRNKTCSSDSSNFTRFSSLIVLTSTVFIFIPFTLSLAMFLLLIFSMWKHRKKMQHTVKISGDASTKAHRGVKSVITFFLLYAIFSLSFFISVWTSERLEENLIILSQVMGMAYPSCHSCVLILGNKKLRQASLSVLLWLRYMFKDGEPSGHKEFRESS

[2] = molecular target: T2, Taste receptor type 2 member 31 (Homo sapiens) (UniProt P59538); test: Antagonist activity at recombinant human N-terminal rat ST3 receptor-fused TAS2R44 expressed in HEK293T cells co-expressing Galpha16gust44 assessed as inhibition of aristolochic acid-induced intracellular calcium level at 100 uM by FLIPR assay
T2 sequence (whole entry): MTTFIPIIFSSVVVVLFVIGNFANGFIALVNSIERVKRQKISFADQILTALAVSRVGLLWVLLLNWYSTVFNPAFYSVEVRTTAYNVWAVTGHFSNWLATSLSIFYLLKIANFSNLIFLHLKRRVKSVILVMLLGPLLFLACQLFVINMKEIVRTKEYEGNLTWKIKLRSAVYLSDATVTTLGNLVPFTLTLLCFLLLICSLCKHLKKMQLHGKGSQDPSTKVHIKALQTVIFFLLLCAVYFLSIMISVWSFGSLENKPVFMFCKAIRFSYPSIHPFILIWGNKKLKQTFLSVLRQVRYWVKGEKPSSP

HEK-293T = test: Effect on intracellular calcium level in mock-transfected HEK293T cells at 100 uM FLIPR assay; conditions: Homo sapiens
[3] = molecular target: T3, Taste receptor type 2 member 39 (Homo sapiens) (UniProt P59534); test: Antagonist activity at recombinant human N-terminal rat ST3 receptor-fused TAS2R39 expressed in HEK293T cells co-expressing Galpha16gust44 assessed as inhibition of epigallocatechin galiate-induced increase in intracellular calcium level at 100 uM by FLIPR assay
T3 sequence (whole entry): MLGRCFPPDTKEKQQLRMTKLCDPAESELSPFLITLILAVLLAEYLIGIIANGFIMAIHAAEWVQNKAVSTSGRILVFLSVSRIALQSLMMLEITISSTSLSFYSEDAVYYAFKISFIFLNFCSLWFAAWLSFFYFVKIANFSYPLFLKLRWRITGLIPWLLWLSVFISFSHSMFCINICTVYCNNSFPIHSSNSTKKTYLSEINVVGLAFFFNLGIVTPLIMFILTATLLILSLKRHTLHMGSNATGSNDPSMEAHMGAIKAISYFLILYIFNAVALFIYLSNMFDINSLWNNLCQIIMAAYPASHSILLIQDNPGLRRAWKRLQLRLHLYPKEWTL

[4] = molecular target: T4, Taste receptor type 2 member 10 (Homo sapiens) (UniProt Q9NYW0); test: Antagonist activity at recombinant human N-terminal rat ST3 receptor-fused TAS2R10 expressed in HEK293T cells co-expressing Galpha16gust44 assessed as inhibition of strychnine-induced increase in intracellular calcium level at 100 uM by FLIPR assay
T4 sequence (whole entry): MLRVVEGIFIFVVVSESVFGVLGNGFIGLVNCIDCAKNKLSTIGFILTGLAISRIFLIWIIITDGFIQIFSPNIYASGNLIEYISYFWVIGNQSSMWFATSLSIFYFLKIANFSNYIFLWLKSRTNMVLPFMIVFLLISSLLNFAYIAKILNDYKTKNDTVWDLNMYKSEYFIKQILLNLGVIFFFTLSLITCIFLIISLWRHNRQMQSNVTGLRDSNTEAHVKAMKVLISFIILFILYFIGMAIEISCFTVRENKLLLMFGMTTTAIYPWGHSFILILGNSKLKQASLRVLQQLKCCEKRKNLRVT

[5] = molecular target: T5, Taste receptor type 2 member 3 (Homo sapiens) (UniProt Q9NYW6); test: Antagonist activity at recombinant human N-terminal rat ST3 receptor-fused TAS2R3 expressed in HEK293T cells co-expressing Galpha16gust44 assessed as inhibition of chloroquine-induced increase in intracellular calcium level at 100 uM by FLIPR assay
T5 sequence (whole entry): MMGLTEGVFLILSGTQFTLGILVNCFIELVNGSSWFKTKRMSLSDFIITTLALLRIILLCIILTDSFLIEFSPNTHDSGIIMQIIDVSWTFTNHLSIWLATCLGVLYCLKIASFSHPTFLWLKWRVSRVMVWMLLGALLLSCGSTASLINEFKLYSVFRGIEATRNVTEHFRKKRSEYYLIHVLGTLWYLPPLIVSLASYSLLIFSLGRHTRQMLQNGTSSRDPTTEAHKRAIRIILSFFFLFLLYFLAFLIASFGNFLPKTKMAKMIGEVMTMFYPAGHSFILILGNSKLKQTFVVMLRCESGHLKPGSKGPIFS

[6] = molecular target: T6, Taste receptor type 2 member 43 (Homo sapiens) (UniProt P59537); test: Antagonist activity at recombinant human N-terminal rat ST3 receptor-fused TAS2R43 expressed in HEK293T cells co-expressing Galpha16gust44 assessed as inhibition of aristolochic acid-induced intracellular calcium level at 100 uM by FLIPR assay
T6 sequence (whole entry): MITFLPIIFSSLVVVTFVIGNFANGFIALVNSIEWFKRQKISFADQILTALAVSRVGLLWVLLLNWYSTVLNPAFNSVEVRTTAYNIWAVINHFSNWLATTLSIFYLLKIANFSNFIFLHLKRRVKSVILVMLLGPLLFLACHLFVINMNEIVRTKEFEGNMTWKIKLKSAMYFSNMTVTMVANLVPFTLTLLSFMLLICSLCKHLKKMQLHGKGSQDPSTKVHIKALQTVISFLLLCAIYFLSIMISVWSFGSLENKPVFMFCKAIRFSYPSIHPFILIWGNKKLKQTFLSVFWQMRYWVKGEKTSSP

**Q.** Which results are given for `C/C1=C\C[C@H](O)[C@@H](C)C[C@H]2OC(=O)[C@@H](C)[C@@H]2CC1`?
**A.** inhibition [1]: inactive; inhibition [2]: Active; Activity (HEK-293T): inactive; inhibition [3]: inactive; inhibition [4]: inactive; inhibition [5]: inactive; inhibition [6]: Active

**Q.** `C/C1=C\C[C@H](O)/C(C)=C/[C@H]2OC(=O)[C@@H](C)[C@@H]2CC1` was tested. Which inhibition [1] did it give?
**A.** Its inhibition is “inactive”.

**Q.** And the inhibition [2]?
**A.** Its inhibition is “inactive”.

**Q.** What about the Activity (HEK-293T) of the same compound?
**A.** The Activity was “inactive”.

**Q.** And the inhibition [3]?
**A.** The inhibition was “inactive”.

**Q.** What about the inhibition [4] of the same compound?
**A.** Its inhibition is “inactive”.

**Q.** What about the inhibition [5] of the same compound?
**A.** The inhibition was “inactive”.

**Q.** What about the inhibition [6] of the same compound?
**A.** The inhibition was “Active”.
